# Laboratory results published in US9546401B2, “Assays and methods for selecting a treatment regimen for a subject with depression” (The General Hospital Corporation, priority 2011, dated 2017).
# Where two headings read alike, the source gives them in different places. Marks after values point to notes of the source that are not given here.
# Tested on: MDD patients carrying the indicated biomarkers
# Details: for Effect on change in HAMD-28 score / Effect on change in HAMD-17 score: Pooled phases
# Method: Folate levels are classified as either low (<=2.5 ng/ml) or normal; and homocysteine levels as either normal or elevated (>=[…]). The presence or absence of at least one […] allele for the MTHFR gene are entered as a dichotomous variable (present or absent). […] Using folate as an example predicator, the presence or absence of a low serum-folate level along with treatment assignment can be entered in a 2×2, factorial ANOVA, using depression improvement scores (baseline minus endpoint HAM-D-17 scores) as the dependant variable. […] Similar analyses (i.e. separate 2×2 ANOVA's) can be performed substituting the presence of low folate levels for the presence of other predictors as described herein. Similarly, the effect of other predictors can be indicated by the interaction term representing the potential modulating influence of those variables.
# The efficacy effect is determined by measuring the mean change in the HAMD-17 score and HAMD-28 score by the end of Phase I and Phase II, as compared to the baseline.
# [1] = BMI < 30 kg/m^2 and HNE-His < median
# [2] = BMI < 30 kg/m^2 and SAM/SAH >= median
# [3] = BMI >= 30 kg/m^2 and HNE-His >= median
# [4] = BMI*treat (interaction of BMI with the treatment)
# [5] = MTHFR 677 CC and BMI < 30 kg/m^2
# [6] = MTHFR 677 CT or TT and BMI >= 30 kg/m^2
# [7] = MTHFR 677 CT or TT and HNE-His >= median
# [8] = MTR 2756 AA and BMI < 30 kg/m^2
# [9] = MTR 2756 AA and HNE-His < median
# [10] = MTR 2756 AA and MTRR 66 AA and SAM/SAH >= median
# [11] = MTR 2756 AA and SAM/SAH >= median
# [12] = MTR 2756 AG or GG and BMI >= 30 kg/m^2
# [13] = MTR 2756 AG or GG and MTRR 66 AG or GG
# [14] = MTR 2756 AG or GG and MTRR 66 AG or GG and HNE-His >= median
# [15] = MTRR 66 AA and SAM/SAH >= median
# [16] = MTRR 66 AG or GG and HNE-His >= median
# [17] = SAM/SAH < median and HNE-His >= median
# [18] = SAM/SAH >= median and HNE-His < median
compound,measurement,setting,value
"CN1c2c(nc(N)[nH]c2=O)NC[C@@H]1CNc1ccc(C(=O)N[C@@H](CCC(=O)O)C(=O)O)cc1 [6(S)-5-MTHF, 6(S)-5-methyltetrahydrofolate]",Effect on change in HAMD-28 score,BMI < 25,−1.018
same,Effect on change in HAMD-17 score,[1],4.738
same,Effect on change in HAMD-28 score,[1],4.253
same,Effect on change in HAMD-17 score,[2],2.583
same,Effect on change in HAMD-28 score,[2],2.906
same,Effect on change in HAMD-17 score,BMI >= 30 kg/m^2,−4.600
same,Effect on change in HAMD-28 score,BMI >= 30 kg/m^2,−4.660
same,Effect on change in HAMD-17 score,[3],−5.420
same,Effect on change in HAMD-28 score,[3],−5.996
same,Effect on change in HAMD-17 score,BMI >= 30 kg/m^2 and SAM/SAH < median,−7.302
same,Effect on change in HAMD-28 score,BMI >= 30 kg/m^2 and SAM/SAH < median = 2.71 (plasma),−7.572
same,Effect on change in HAMD-17 score,[4],−0.233
same,Effect on change in HAMD-28 score,[4],−0.270
same,Effect on change in HAMD-17 score,[5],1.356
same,Effect on change in HAMD-28 score,[5],−0.234
same,Effect on change in HAMD-17 score,MTHFR 677 CC and HNE-His < median,−1.050
same,Effect on change in HAMD-28 score,MTHFR 677 CC and HNE-His < median = 3.28 (plasma),−1.340
same,Effect on change in HAMD-17 score,[6],−8.090
same,Effect on change in HAMD-28 score,[6],−9.884
same,Effect on change in HAMD-17 score,[7],−9.446
same,Effect on change in HAMD-28 score,[7],−9.865
same,Effect on change in HAMD-17 score,MTR 2756 AA,−0.590
same,Effect on change in HAMD-28 score,MTR 2756 AA,−0.047
same,Effect on change in HAMD-17 score,[8],3.196
same,Effect on change in HAMD-28 score,[8],3.352
same,Effect on change in HAMD-17 score,[9],1.319
same,Effect on change in HAMD-28 score,[9],2.085
same,Effect on change in HAMD-17 score,MTR 2756 AA and MTRR 66 AA,−1.373
same,Effect on change in HAMD-28 score,MTR 2756 AA and MTRR 66 AA,−3.032
same,Effect on change in HAMD-17 score,MTR 2756 AA and MTRR 66 AA and HNE-His < median,0.466
same,Effect on change in HAMD-28 score,MTR 2756 AA and MTRR 66 AA and HNE-His < median = 3.28 (plasma),−2.221
same,Effect on change in HAMD-17 score,[10],−3.98*
same,Effect on change in HAMD-28 score,[10],−3.74*
same,Effect on change in HAMD-17 score,[11],0.054
same,Effect on change in HAMD-28 score,[11],−0.071
same,Effect on change in HAMD-17 score,[12],−11.714
same,Effect on change in HAMD-28 score,[12],−14.433
same,Effect on change in HAMD-17 score,MTR 2756 AG or GG and HNE-His >= median,−8.072
same,Effect on change in HAMD-28 score,MTR 2756 AG or GG and HNE-His >= median = 3.28 (plasma),−9.508
same,Effect on change in HAMD-17 score,[13],−6.976
same,Effect on change in HAMD-28 score,[13],−9.348
same,Effect on change in HAMD-17 score,[14],−7.942
same,Effect on change in HAMD-28 score,[14],−10.241
same,Effect on change in HAMD-17 score,MTR 2756 AG or GG and MTRR 66 AG or GG and SAM/SAH < median,−7.64*
same,Effect on change in HAMD-28 score,MTR 2756 AG or GG and MTRR 66 AG or GG and SAM/SAH < median = 2.71 (plasma),−11.62*
same,Effect on change in HAMD-17 score,MTR 2756 AG or GG and SAM/SAH < median,−5.583
same,Effect on change in HAMD-28 score,MTR 2756 AG or GG and SAM/SAH < median = 2.71 (plasma),−11.683
same,Effect on change in HAMD-17 score,MTR 2756 AG/GG,−5.677
same,Effect on change in HAMD-28 score,MTR 2756 AG/GG,−8.243
same,Effect on change in HAMD-17 score,MTRR 66 AA and HNE-His < median,2.575
same,Effect on change in HAMD-28 score,MTRR 66 AA and HNE-His < median = 3.28 (plasma),−2.626
same,Effect on change in HAMD-17 score,[15],−2.978
same,Effect on change in HAMD-28 score,[15],−1.221
same,Effect on change in HAMD-17 score,[16],−4.850
same,Effect on change in HAMD-28 score,[16],−6.582
same,Effect on change in HAMD-17 score,MTRR 66 AG or GG and SAM/SAH < median,−5.879
same,Effect on change in HAMD-28 score,MTRR 66 AG or GG and SAM/SAH < median = 2.71 (plasma),−6.579
same,Effect on change in HAMD-17 score,[17],−9.898
same,Effect on change in HAMD-28 score,[17],−9.500
same,Effect on change in HAMD-17 score,[18],2.107
same,Effect on change in HAMD-28 score,[18],2.413
same,Effect on change in HAMD-28 score,"SAM/SAH*treat, first line under HAMD28",0.882
same,Effect on change in HAMD-17 score,baseHAMD-17*treat (interaction of base HAMD-17 with the treatment),−0.025
same,improvement in HDRS-28 or CGI-S,"at least one T allele (CT or TT) at MTHFR 677 versus no T allele, + SSRI",greater degree of improvement
same,improvement in HAMD-28 or CGI-S,"obese (BMI at least 30 kg/m^2) versus non-obese patients, + SSRI",greater degree of improvement
same,mean change in HAMD-28,patients carrying at least one G variant in the MTR gene only,about −8.2
same,mean change in HAMD-28,patients carrying both MTHFR T and MTR G variants,about −23.3
